Data taken from patent US20220370416A1, “COMPOUNDS AND METHODS FOR TARGETED DEGRADATION OF KRAS” (Arvinas Operations, Inc., priority 2020, published 2022).

Assays:
HiBit-KRAS^G12C [1] = target: T1, HiBit-KRAS^G12C (Homo sapiens, UniProt P01116, G12C); assay: HiBit degradation assay in MiaPaCa-2 HiBit-KRas^G12C cells; type: cell-based; settings: 24 hours; for Dmax: maximum degradation
Method in brief: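 MiaPaCa-2 cells with CRISPR N-terminal HiBit knock-in on one endogenous KRAS^G12C allele, treated 24 hours at 37° C with compound titrated 10 μM to 20 nM (0.1% or 0.5% DMSO). Lytic HiBit luminescence normalized to DMSO, 4-parameter fit giving DC50 and Dmax; points cytotoxic to […] cells by alamar blue excluded.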

HiBit-KRAS^G12C [2] = target: T1, HiBit-KRAS^G12C; assay: HiBit degradation assay in SW1573 HiBit-KRas^G12C cells; type: cell-based; set-up: expressed in transfected cells; host or cells: SW1573 (clone E6), modified pcDNA3.1 vector, TK promoter; settings: 24 hours
Method in brief: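 SW1573 cells stably expressing N-terminally HiBit-tagged KRAS G12C, under the TK promoter, were treated 24 h at 37 °C with 10 μM to 20 nM compound in 0.1% or 0.5% DMSO. Residual HiBit luminescence normalised to DMSO and fitted with a 4-parameter model for DC50 and Dmax. Points with ≥50% viability loss (alamar blue) excluded.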

[3] = MIA PaCa-2, MiaPaCa-2 HiBit-KRas^G12C cells, 0.1% DMSO, read-out: KRas^G12C-HiBiT (MiaPaCa; 0.1% DMSO) DMax
[4] = read-out: KRas^G12C-HiBiT (MiaPaCa; 0.1% DMSO) IC50, MiaPaCa-2 HiBit-KRas^G12C cells, 0.1% DMSO
[5] = SW1573, SW1573 HiBit-KRas^G12C, 0.1% DMSO, read-out: KRas^G12C-HiBit (SW1573; 0.1% DMSO) Dmax**
[6] = SW1573 HiBit-KRas^G12C, 0.1% DMSO, read-out: KRas^G12C-HIBit (SW1573; 0.1% DMSO) DC50*
[7] = MIA PaCa-2, MiaPaCa-2 HiBit-KRas^G12C cells, 0.5% DMSO, read-out: KRas^G12C-HiBiT (MiaPaCa; 0.5% DMSO) DMax
[8] = read-out: KRas^G12C-HiBiT (MiaPaCa; 0.5% DMSO) IC50, MiaPaCa-2 HiBit-KRas^G12C cells, 0.5% DMSO
[9] = SW1573, SW1573 HiBit-KRas^G12C, 0.5% DMSO, read-out: KRas^G12C-HiBiT (SW1573; 0.5% DMSO) Dmax**
[10] = read-out: KRas^G12C-HiBiT (SW1573; 0.5% DMSO) IC50***, SW1573 HiBit-KRas^G12C, 0.5% DMSO

T1 sequence (P01116 1-186 isoform P01116-2 G12C limits assumed): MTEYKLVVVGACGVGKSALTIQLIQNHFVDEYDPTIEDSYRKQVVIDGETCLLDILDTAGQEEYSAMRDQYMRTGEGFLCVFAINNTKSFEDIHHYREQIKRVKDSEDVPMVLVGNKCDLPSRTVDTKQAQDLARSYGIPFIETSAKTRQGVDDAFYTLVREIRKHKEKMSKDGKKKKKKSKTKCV

Compound	Dmax (HiBit-KRAS^G12C [1]; [3]) [%]	DC50 (HiBit-KRAS^G12C [1]; [4]) [nM]	Dmax (HiBit-KRAS^G12C [2]; [5]) [%]	DC50 (HiBit-KRAS^G12C [2]; [6]) [nM]	Dmax (HiBit-KRAS^G12C [1]; [7]) [%]	DC50 (HiBit-KRAS^G12C [1]; [8]) [nM]	Dmax (HiBit-KRAS^G12C [2]; [9]) [%]	DC50 (HiBit-KRAS^G12C [2]; [10]) [nM]	Dmax (HiBit-KRAS^G12C [1]; MIA PaCa-2, read-out: KRas^G12C-HiBiT (MiaPaCa; 0.5% DMSO) DMax, MiaPaCa-2 HiBit-KRas^G12C cells, 0.5% DMSO) [%]	Dmax (HiBit-KRAS^G12C [2]; SW1573, read-out: KRas^G12C-HiBiT (SW1573; 0.5% DMSO) Dmax**, SW1573 HiBit-KRas^G12C, 0.5% DMSO) [%]
C=CC(=O)N1CCN(c2nc(O[C@H](C)CN3CC(OCC(=O)N[C@H](C(=O)N4C[C@H](O)C[C@H]4C(=O)N[C@@H](C)c4ccc(-c5scnc5C)cc4)C(C)(C)C)C3)nc3c(F)c(-c4cc(O)cc5ccccc45)c(Cl)cc23)CC1 [Compound 41, (2S,4R)-1-[(2S)-2-[2-({1-[(2R)-2-{[6-chloro-8-fluoro-7-(3-hydroxynaphthalen-1-yl)-4-[4-(prop-2-enoyl)piperazin-1-yl]quinazolin-2-yl]oxy}propyl]azetidin-3-yl}oxy)acetamido]-3,3-dimethylbutanoyl]-4-hydroxy-N-[(1S)-1-[4-(4-methyl-1,3-thiazol-5-yl)phenyl]ethyl]pyrrolidine-2-carboxamide]	< 35	100 to 1000	35 to 70	> 1000	–	–	–	–	–	–
C=CC(=O)N1CCN(c2nc(O[C@H](C)CN3CCC(C(=O)N[C@H](C(=O)N4C[C@H](O)C[C@H]4C(=O)N[C@@H](C)c4ccc(-c5scnc5C)cc4)C(C)(C)C)CC3)nc3c(F)c(-c4cc(O)cc5ccccc45)c(Cl)cc23)CC1 [Compound 34, 1-[(2R)-2-{[6-chloro-8-fluoro-7-(3-hydroxynaphthalen-1-yl)-4-[4-(prop-2-enoyl)piperazin-1-yl]quinazolin-2-yl]oxy}propyl]-N-[(2S)-1-[(2S,4R)-4-hydroxy-2-{[(1S)-1-[4-(4-methyl-1,3-thiazol-5-yl)phenyl]ethyl]carbamoyl}pyrrolidin-1-yl]-3,3-dimethyl-1-oxobutan-2-yl]piperidine-4-carboxamide]	–	> 1000	< 35	100 to 1000	–	–	–	–	–	–
C=CC(=O)N1CCN(c2nc(OCCN3CCC(COC4(C(=O)N[C@H](C(=O)N5C[C@H](O)C[C@H]5C(=O)N[C@@H](C)c5ccc(-c6scnc6C)cc5)C(C)(C)C)CC4)CC3)nc3c(F)c(-c4cc(O)cc5ccccc45)c(Cl)cc23)C[C@@H]1CC#N [Compound 96, (2S,4R)-1-[(2S)-2-{[1-({1-[2-({6-chloro-4-[(3S)-3-(cyanomethyl)-4-(prop-2-enoyl)piperazin-1-yl]-8-fluoro-7-(3-hydroxynaphthalen-1-yl)quinazolin-2-yl}oxy)ethyl]piperidin-4-yl}methoxy)cyclopropyl] formamido}-3,3-dimethylbutanoyl]-4-hydroxy-N-[(1S)-1-[4-(4-methyl-1,3-thiazol-5-yl)phenyl]ethyl]pyrrolidine-2-carboxamide]	–	–	–	–	> 70	100 to 1000	> 70	< 100	–	–
C=CC(=O)N1CCN(c2nc(OCCN3CCC4(CC3)CN(CC(=O)N[C@H](C(=O)N3C[C@H](O)C[C@H]3C(=O)N[C@@H](C)c3ccc(-c5scnc5C)cc3)C(C)(C)C)C4)nc3c(F)c(-c4cc(O)cc5ccccc45)c(Cl)cc23)C[C@@H]1CC#N [Compound 145, (2S,4R)-1-[(2S)-2-(2-{7-[2-({6-chloro-4-[(3S)-3-(cyanomethyl)-4-(prop-2-enoyl)piperazin-1-yl)-8-fluoro-7-(3-hydroxynaphthalen-1-yl)quinazolin-2-yl}oxy)ethyl]-2,7-diazaspiro[3.5]nonan-2-yl}acetamido)-3,3-dimethylbutanoyl]-4-hydroxy-N-[(1S)-1-[4-(4-methyl-1,3-thiazol-5-yl)phenyl]ethyl]pyrrolidine-2-carboxamide]	–	–	–	–	–	100 to 1000	–	100 to 1000	35 to 70	> 70
C=CC(=O)N1CCN(c2nc(O[C@H](C)CN3CCC(OCCOc4cc(-c5scnc5C)ccc4CNC(=O)[C@@H]4C[C@@H](O)CN4C(=O)[C@H](c4cc(C)no4)C(C)C)CC3)nc3c(F)c(-c4cc(O)cc5ccccc45)c(Cl)cc23)CC1 [Compound 77, (2S,4R)-N-({2-[2-({1-[(2R)-2-{[6-chloro-8-fluoro-7-(3-hydroxynaphthalen-1-yl)-4-[4-(prop-2-enoyl)piperazin-1-yl]quinazolin-2-yl]oxy}propyl]piperidin-4-yl}oxy)ethoxy]-4-(4-methyl-1,3-thiazol-5-yl)phenyl}methyl)-4-hydroxy-1-[(2S)-3-methyl-2-(3-methyl-1,2-oxazol-5-yl)butanoyl]pyrrolidine-2-carboxamide]	< 35	–	< 35	100 to 1000	–	–	–	–	–	–
C=CC(=O)N1CCN(c2nc(O[C@H](C)CN3CCC(OCCOCC(=O)N[C@H](C(=O)N4C[C@H](O)C[C@H]4C(=O)N[C@@H](C)c4ccc(-c5scnc5C)cc4)C(C)(C)C)CC3)nc3c(F)c(-c4cc(O)cc5ccccc45)c(Cl)cc23)[C@@H](C)C1 [Compound 39, (2S,4R)-1-[(2S)-2-{2-[2-({1-[(2R)-2-{[6-chloro-8-fluoro-7-(3-hydroxynaphthalen-1-yl)-4-[(2S)-2-methyl-4-(prop-2-enoyl)piperazin-1-yl]quinazolin-2-yl]oxy}propyl]piperidin-4-yl}oxy)ethoxy]acetamido}-3,3-dimethylbutanoyl]-4-hydroxy-N-[(1S)-1-[4-(4-methyl-1,3-thiazol-5-yl)phenyl]ethyl]pyrrolidine-2-carboxamide]	< 35	–	35 to 70	100 to 1000	–	> 1000	35 to 70	–	–	–

The next lines start with results.

Dmax (HiBit-KRAS^G12C [1]; [3]) [%]	DC50 (HiBit-KRAS^G12C [1]; [4]) [nM]	Dmax (HiBit-KRAS^G12C [2]; [5]) [%]	DC50 (HiBit-KRAS^G12C [2]; [6]) [nM]	Dmax (HiBit-KRAS^G12C [1]; [7]) [%]	DC50 (HiBit-KRAS^G12C [1]; [8]) [nM]	Dmax (HiBit-KRAS^G12C [2]; [9]) [%]	DC50 (HiBit-KRAS^G12C [2]; [10]) [nM]	Compound	Dmax (HiBit-KRAS^G12C [1]; MIA PaCa-2, read-out: KRas^G12C-HiBiT (MiaPaCa; 0.5% DMSO) DMax, MiaPaCa-2 HiBit-KRas^G12C cells, 0.5% DMSO) [%]	Dmax (HiBit-KRAS^G12C [2]; SW1573, read-out: KRas^G12C-HiBiT (SW1573; 0.5% DMSO) Dmax**, SW1573 HiBit-KRas^G12C, 0.5% DMSO) [%]
–	–	–	–	> 70	100 to 1000	> 70	100 to 1000	C=CC(=O)N1CCN(c2nc(OCCN3CCC(C)(COCC(=O)N[C@H](C(=O)N4C[C@H](O)C[C@H]4C(=O)N[C@@H](C)c4ccc(-c5scnc5C)cc4)C(C)(C)C)CC3)nc3c(F)c(-c4cc(O)cc5ccccc45)c(Cl)cc23)C[C@@H]1CC#N [Compound 149, (2S,4R)-1-[(2S)-2-[2-({1-[2-({6-chloro-4-[(3S)-3-(cyanomethyl)-4-(prop-2-enoyl)piperazin-1-yl]-8-fluoro-7-(3-hydroxynaphthalen-1-yl)quinazolin-2-yl}oxy)ethyl]-4-methylpiperidin-4-yl}methoxy)acetamido]-3,3-dimethylbutanoyl]-4-hydroxy-N-[(1S)-1-[4-(4-methyl-1,3-thiazol-5-yl)phenyl]ethyl]pyrrolidine-2-carboxamide]	–	–
–	–	–	–	> 70	100 to 1000	35 to 70	< 100	C=C(F)C(=O)N1CCN(c2nc(OCCN3CCC(F)(COc4cc([C@H](C(=O)N5C[C@H](O)C[C@H]5C(=O)N[C@@H](C)c5ccc(-c6scnc6C)cc5)C(C)C)on4)CC3)nc3c(F)c(-c4cc(O)cc5ccccc45)c(Cl)cc23)C[C@@H]1CC#N (atropisomer, axis not shown) [Compound 121, (2S,4R)-1-[(2R)-2-[3-({1-[2-({6-chloro-4-[(3S)-3-(cyanomethyl)-4-(2-fluoroprop-2-enoyl)piperazin-1-yl]-8-fluoro-7-(3-hydroxynaphthalen-1-yl)quinazolin-2-yl}oxy)ethyl]-4-fluoropiperidin-4-yl}methoxy)-1,2-oxazol-5-yl]-3-methylbutanoyl]-4-hydroxy-N-[(1S)-1-[4-(4-methyl-1,3-thiazol-5-yl)phenyl]ethyl]pyrrolidine-2-carboxamide]	–	–
–	–	–	–	35 to 70	100 to 1000	> 70	100 to 1000	C=CC(=O)N1CCN(c2nc(OCCN3CCC(COCC(=O)N[C@H](C(=O)N4C[C@H](O)C[C@H]4C(=O)N[C@@H](C)c4ccc(-c5scnc5C)cc4)C(C)(C)C)CC3)nc3c(F)c(-c4c(C)ccc5[nH]ncc45)c(Cl)cc23)C[C@@H]1CC#N [Compound 128, (2S,4R)-1-[(2S)-2-[2-({1-[2-({6-chloro-4-[(3S)-3-(cyanomethyl)-4-(prop-2-enoyl)piperazin-1-yl]-8-fluoro-7-(5-methyl-1H-indazol-4-yl)quinazolin-2-yl}oxy)ethyl]piperidin-4-yl}methoxy)acetamido]-3,3-dimethylbutanoyl]-4-hydroxy-N-[(1S)-1-[4-(4-methyl-1,3-thiazol-5-yl)phenyl]ethyl]pyrrolidine-2-carboxamide]	–	–
–	–	–	–	–	> 1000	> 70	> 1000	C=CC(=O)N1CCN(c2nc(OCCN3CCC(COCC(=O)N[C@H](C(=O)N4C[C@@H](O)C[C@H]4C(=O)N[C@@H](C)c4ccc(-c5scnc5C)cc4)C(C)(C)C)CC3)nc3c(F)c(-c4cccc5cccc(C)c45)c(Cl)cc23)C[C@@H]1CC#N [Compound 97]	–	–
